In patent publication US9023789B2, “Amylin analogs and pharmaceutical compositions thereof” (Novo Nordisk A/S, priority 2012, dated 2015):
Numbered stars: 1 amine (or outer) side, 2 acyl side, 3 side chain; on linkers, the order of the positions; unused ones are H or OH. Bridge positions count the residues as written; N and C are the ends. Side chains are listed from the residue outwards. Peptide text beside a SMILES is read from it. * marks the point of attachment. C20 diacid = O=C(O)CCCCCCCCCCCCCCCCCCC(=O)*; γGlu = O=C(O)[C@H](CCC(=O)[*:2])N[*:1]

Key:
[1] = ASSAY (III) ThT fibrillation assay for physical stability; type: physicochemical
Method in brief: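 Physical stability scored by ThT fluorescence (444 nm excitation, 485 nm emission) tracked every 20 min during 37 °C incubation with 960 rpm shaking, ThT at 1 μM final. Values are replicate means with SD at chosen times; HPLC against pramlintide standard gives initial and post-assay soluble concentrations.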

[2] = molecular target: T1, human amylin 3(a) receptor (human calcitonin receptor + RAMP-3) in BHK570 cells (Homo sapiens, UniProt O60896+P30988); assay: ASSAY (II)a functional assay, human amylin receptor (CRE luciferase); type: cell-based
T1 construct: expressed in transfected cells
Method in brief: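 Receptor activation is measured as cAMP-driven CRE-luciferase expression in BHK cells expressing the calcitonin receptor, with RAMP-3 co-expressed to form the amylin 3(a) receptor. Cells are exposed to compound for 3 hours at 37° C, and luciferase is then quantified by luminescence.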

[3] = molecular target: T2, human amylin receptor (membranes from Amylin 3(a)/CRE-luc cells) (Homo sapiens, UniProt O60896+P30988); assay: ASSAY (V) binding to the human amylin receptor (SPA, 125I-rat amylin);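 also: competition binding of cell membranes (35 ng/µL) mixed with SPA beads in 384-well plates at 40 µL total volume, read by scintillation counting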
T2 construct: expressed in transfected cells
T2 sequence (P30988 25-474): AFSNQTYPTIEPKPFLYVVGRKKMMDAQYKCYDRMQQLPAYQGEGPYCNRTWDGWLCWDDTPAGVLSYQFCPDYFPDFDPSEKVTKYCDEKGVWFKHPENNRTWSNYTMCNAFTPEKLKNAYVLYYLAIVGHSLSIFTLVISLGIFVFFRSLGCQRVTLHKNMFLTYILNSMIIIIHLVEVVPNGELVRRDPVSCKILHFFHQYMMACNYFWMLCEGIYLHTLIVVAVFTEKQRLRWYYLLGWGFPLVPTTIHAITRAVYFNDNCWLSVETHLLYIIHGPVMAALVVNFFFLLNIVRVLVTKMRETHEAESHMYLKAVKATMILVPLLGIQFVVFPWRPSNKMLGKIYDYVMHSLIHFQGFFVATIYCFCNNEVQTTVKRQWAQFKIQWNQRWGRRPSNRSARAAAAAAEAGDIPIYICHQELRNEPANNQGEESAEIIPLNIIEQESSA
T2 sequence (O60896 24-148 partner): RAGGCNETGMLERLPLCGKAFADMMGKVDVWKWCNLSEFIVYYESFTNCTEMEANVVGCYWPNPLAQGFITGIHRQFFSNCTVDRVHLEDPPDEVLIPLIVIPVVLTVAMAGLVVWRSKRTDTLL

[4] = hCTR funct. EC50 / hAmylin-R funct. EC50
[5] = hCTR funct. EC50 divided by hAmylin-R funct. EC50
[6] = hCTR funct. EC50 over hAmylin-R funct. EC50
[7] = human functional selectivity: hCTR funct. EC50 / hAmylin-R funct. EC50
[8] = Table 5, selectivity, hCTR bind IC50 / hAmylin-R bind IC50
[9] = Table 5a, selectivity, hCTR bind IC50 / hAmylin-R bind IC50
[10] = Table 5b, selectivity, hCTR bind IC50 / hAmylin-R bind IC50
[11] = Table 7, human binding selectivity, included for comparison
[12] = Table 7a (preferred compounds), human binding selectivity, included for comparison
[13] = ratio of human calcitonin receptor binding IC50 to human amylin receptor binding IC50

Row | ThT pH 4.0 lag time (h) [1] [h] | Ratio hCT/hAmylin funct. [2, 4] | Ratio hCT/hAmylin funct. [2, 5] | Ratio hCT/hAmylin funct. [2, 6] | EC50 ([2]; human amylin receptor functional potency, assay (II), read-out: hAmylin-R funct. EC50) [nM] | Ratio hCT/hAmylin funct. [2, 7] | IC50 ([3]; Table 4, read-out: hAmylin-R bind IC50) [nM] | Ratio hCT/hAmylin binding [3, 8] | Ratio hCT/hAmylin binding [3, 9] | Ratio hCT/hAmylin binding [3, 10] | Ratio hCT/hAmylin binding [3, 11] | Ratio hCT/hAmylin binding [3, 12] | Ratio hCT/hAmylin binding [3, 13] | Ratio hCT/hAmylin binding ([3]; Table 5c, selectivity, hCTR bind IC50 / hAmylin-R bind IC50) | SMILES
1 | 30 | 3.9 | 3.9 | 3.9 | 0.288 | 3.9 | 0.196 | 16.7 | 16.7 | 16.7 | 16.7 | 16.7 | 16.7 | – | CC[C@H](C)[C@H](NC(=O)[C@H](C)NC(=O)CNC(=O)[C@H](Cc1ccccc1)NC(=O)[C@H](CC(N)=O)NC(=O)[C@@H]1CCCN1C(=O)[C@H](CO)NC(=O)[C@H](CO)NC(=O)[C@H](Cc1c[nH]cn1)NC(=O)[C@H](CCCNC(=N)N)NC(=O)[C@H](CC(C)C)NC(=O)[C@H](Cc1ccccc1)NC(=O)[C@H](CC(=O)O)NC(=O)[C@H](C)NC(=O)[C@H](CC(C)C)NC(=O)[C@H](CCCNC(=N)N)NC(=O)[C@H](CCC(N)=O)NC(=O)[C@@H](NC(=O)[C@H](C)NC(=O)[C@@H]1CSSC[C@H](NC(=O)[C@@H](N)CCCCNC(=O)CC[C@H](NC(=O)CCCCCCCCCCCCCCCCCCC(=O)O)C(=O)O)C(=O)N[C@@H](CC(N)=O)C(=O)N[C@@H]([C@@H](C)O)C(=O)N[C@@H](C)C(=O)N[C@@H]([C@@H](C)O)C(=O)N1)[C@@H](C)O)C(=O)N1CCC[C@H]1C(=O)N[C@@H](CO)C(=O)N[C@@H](CO)C(=O)N[C@H](C(=O)N[C@@H](CC(N)=O)C(=O)N[C@H](C(=O)NCC(=O)N1CCC[C@H]1C(=O)N[C@@H](CCC(=O)O)C(=O)N[C@H](C(=O)N[C@@H](Cc1ccc(O)cc1)C(N)=O)[C@@H](C)O)C(C)C)[C@@H](C)O [Example 123] (H-K([γGlu-C20 diacid])CNTATCATQRLADFLRHSSPNFGAIPSSTNVGPETY-NH2; disulfide 2-7; N-terminus assumed)
2 | 45 | – | 16.4 | 16.4 | – | 16.4 | – | 27.3 | 27.3 | 27.3 | 27.3 | 27.3 | 27.3 | 27.3 | CC[C@H](C)[C@H](NC(=O)[C@H](C)NC(=O)CNC(=O)[C@H](Cc1ccccc1)NC(=O)[C@H](CC(N)=O)NC(=O)[C@@H]1CCCN1C(=O)[C@H](CO)NC(=O)[C@H](CO)NC(=O)[C@H](Cc1c[nH]cn1)NC(=O)[C@H](CCCNC(=N)N)NC(=O)[C@H](CC(C)C)NC(=O)[C@H](Cc1ccccc1)NC(=O)[C@H](CCC(=O)O)NC(=O)[C@H](C)NC(=O)[C@H](CC(C)C)NC(=O)[C@H](CCCNC(=N)N)NC(=O)[C@H](CCC(N)=O)NC(=O)[C@@H](NC(=O)[C@H](C)NC(=O)[C@@H]1CSSC[C@H](NC(=O)[C@@H](N)CCCCNC(=O)CC[C@H](NC(=O)CC[C@H](NC(=O)CCCCCCCCCCCCCCCCCCC(=O)O)C(=O)O)C(=O)O)C(=O)N[C@@H](CC(N)=O)C(=O)N[C@@H]([C@@H](C)O)C(=O)N[C@@H](C)C(=O)N[C@@H]([C@@H](C)O)C(=O)N1)[C@@H](C)O)C(=O)N1CCC[C@H]1C(=O)N[C@@H](CO)C(=O)N[C@@H](CO)C(=O)N[C@H](C(=O)N[C@@H](CC(N)=O)C(=O)N[C@H](C(=O)NCC(=O)N1CCC[C@H]1C(=O)N[C@@H](Cc1c[nH]cn1)C(=O)N[C@H](C(=O)N[C@@H](Cc1ccc(O)cc1)C(N)=O)[C@@H](C)O)C(C)C)[C@@H](C)O [Example 124] (H-K([γGlu-γGlu-C20 diacid])CNTATCATQRLAEFLRHSSPNFGAIPSSTNVGPHTY-NH2; disulfide 2-7 (inferred))
3 | 23 | 0.8 | 0.8 | 0.8 | – | 0.8 | – | 0.4 | – | – | 0.4 | 0.4 | – | – | CC[C@H](C)[C@H](NC(=O)[C@H](C)NC(=O)CNC(=O)[C@H](Cc1ccccc1)NC(=O)[C@H](CC(N)=O)NC(=O)[C@@H]1CCCN1C(=O)[C@H](CO)NC(=O)[C@H](CO)NC(=O)[C@H](Cc1c[nH]cn1)NC(=O)[C@H](CCCNC(=N)N)NC(=O)[C@H](CC(C)C)NC(=O)[C@H](Cc1ccccc1)NC(=O)[C@H](CCC(=O)O)NC(=O)[C@H](C)NC(=O)[C@H](CC(C)C)NC(=O)[C@H](CCCNC(=N)N)NC(=O)[C@H](CCC(N)=O)NC(=O)[C@@H](NC(=O)[C@H](C)NC(=O)[C@@H]1CSSC[C@H](NC(=O)[C@@H](N)CCCCNC(=O)CC[C@H](NC(=O)CC[C@H](NC(=O)CCCCCCCCCCCCCCCCCCC(=O)O)C(=O)O)C(=O)O)C(=O)N[C@@H](CC(N)=O)C(=O)N[C@@H]([C@@H](C)O)C(=O)N[C@@H](C)C(=O)N[C@@H]([C@@H](C)O)C(=O)N1)[C@@H](C)O)C(=O)N1CCC[C@H]1C(=O)N[C@@H](CO)C(=O)N[C@@H](CO)C(=O)N[C@H](C(=O)N[C@@H](CC(N)=O)C(=O)N[C@H](C(=O)NCC(=O)N1CCC[C@H]1C(=O)N[C@@H](CCC(=O)O)C(=O)N[C@H](C(=O)N1CCC[C@H]1C(N)=O)[C@@H](C)O)C(C)C)[C@@H](C)O [Example 125] (H-K([γGlu-γGlu-C20 diacid])CNTATCATQRLAEFLRHSSPNFGAIPSSTNVGPETP-NH2; disulfide 2-7 (inferred); N-terminus assumed)
4 | 25 | – | 9.9 | 9.9 | – | 9.9 | – | 18.0 | 18.0 | 18.0 | 18.0 | 18.0 | 18.0 | – | CC[C@H](C)[C@H](NC(=O)[C@H](C)NC(=O)CNC(=O)[C@H](Cc1ccccc1)NC(=O)[C@H](CC(N)=O)NC(=O)[C@@H]1CCCN1C(=O)[C@H](CO)NC(=O)[C@H](CO)NC(=O)[C@H](Cc1c[nH]cn1)NC(=O)[C@H](CCCNC(=N)N)NC(=O)[C@H](CC(C)C)NC(=O)[C@H](Cc1ccccc1)NC(=O)[C@H](CCC(=O)O)NC(=O)[C@H](C)NC(=O)[C@H](CC(C)C)NC(=O)[C@H](CCCNC(=N)N)NC(=O)[C@H](CCC(N)=O)NC(=O)[C@@H](NC(=O)[C@H](C)NC(=O)[C@@H]1CSSC[C@H](NC(=O)[C@@H](N)CCCCNC(=O)CC[C@H](NC(=O)CC[C@H](NC(=O)CCCCCCCCCCCCCCCCCCC(=O)O)C(=O)O)C(=O)O)C(=O)N[C@@H](CC(N)=O)C(=O)N[C@@H]([C@@H](C)O)C(=O)N[C@@H](C)C(=O)N[C@@H]([C@@H](C)O)C(=O)N1)[C@@H](C)O)C(=O)N1CCC[C@H]1C(=O)N[C@@H](CO)C(=O)N[C@@H](CO)C(=O)N[C@H](C(=O)N[C@@H](CC(N)=O)C(=O)N[C@H](C(=O)NCC(=O)N1CCC[C@H]1C(=O)N[C@@H](CC(N)=O)C(=O)N[C@H](C(=O)N[C@@H](Cc1ccccc1)C(N)=O)[C@@H](C)O)C(C)C)[C@@H](C)O [Example 127] (H-K([γGlu-γGlu-C20 diacid])CNTATCATQRLAEFLRHSSPNFGAIPSSTNVGPNTF-NH2; disulfide 2-7 (inferred))
